Source: patent publication US9902736B2, “1-oxo/acylation-14-acylated oridonin derivative, preparation method therefor and application thereof” (HANGZHOU BENSHENG PHARMACEUTICAL CO., LTD., priority 2012, dated 2018)
In brackets after ≈: the same amount, converted by molar mass.

What was measured:
PANC-1 = assay: Solid tumor cell growth inhibition, MTT, 72 h; type: cell-based; conditions: Homo sapiens
Experimental: (§1) 6000 well-growing human solid tumor cells were obtained and inoculated into wells of a 96-well cell culture plate. The culture medium was DMEM High Glucose cell culture medium containing 10% fetal bovine serum. The plate was placed in a carbon dioxide cell incubator (5% CO2) at 37° C. and incubated for 24 hours. After added with 1-oxo/acylated-14-acylated oridonin derivatives of different concentration and mixed uniformly, the plate was placed in a carbon dioxide cell incubator (5% CO2) at 37° C. and incubated for 72 hours. Then the viable cell concentration was determined by MTT method.

SK-OV-3 = assay: Solid tumor cell growth inhibition, MTT, 72 h; type: cell-based; conditions: Homo sapiens, SK-OV-3, 72 h, MTT; for IC50: read-out: IC50 SK-OV-3; for IC90: read-out: IC90 SK-OV-3
Experimental: as §1

RKO = assay: Solid tumor cell growth inhibition, MTT, 72 h; type: cell-based; conditions: Homo sapiens
Experimental: as §1

MG-63 = assay: Solid tumor cell growth inhibition, MTT, 72 h; type: cell-based; conditions: Homo sapiens
Experimental: as §1

A549 = assay: Solid tumor cell growth inhibition, MTT, 72 h; type: cell-based; conditions: Homo sapiens
Experimental: as §1

CaEs-17 = assay: Solid tumor cell growth inhibition, MTT, 72 h; type: cell-based; conditions: Homo sapiens, CaEs17
Experimental: as §1

Hep G2 = assay: Solid tumor cell growth inhibition, MTT, 72 h; type: cell-based; conditions: Homo sapiens, HepG2
Experimental: as §1

PC-3 = assay: Solid tumor cell growth inhibition, MTT, 72 h; type: cell-based; conditions: Homo sapiens
Experimental: as §1

U87-MG = assay: Solid tumor cell growth inhibition, MTT, 72 h; type: cell-based; conditions: Homo sapiens, U-87 MG
Experimental: as §1

Becap-37 = assay: Solid tumor cell growth inhibition, MTT, 72 h; type: cell-based; conditions: Homo sapiens
Experimental: as §1

K562/ADR = assay: Leukemia cell growth inhibition, MTT, 72 h; type: cell-based; conditions: Homo sapiens
Excerpt: (§2) Leukemia cell lines: leukemia cell lines: K562/adr (drug-resistant, chronic myeloid leukemia, CML), NB4 (acute promyelocytic leukemia, AML), Kasumi-1 (acute myeloid leukemia M2 type, AML-M2), Jurkat (acute lymphoblastic leukemia, ALL), all of which were donated by Cancer Research Institute of Zhejiang University, China; and H9 (acute lymphoblastic leukemia, ALL), which was purchased from China Center for Type Culture Collection.
(§3) 6000 well-growing leukemia cells were obtained and inoculated into wells of a 96-well cell culture plate. […] On the next day, the 1-oxo/acylated-14-acylated oridonin derivatives of different concentrations were added and mixed uniformly. The plate was placed in a carbon dioxide cell incubator (5% CO2) at 37° C. and was incubated for 72 hours. Then the viable cell concentration was determined by MTT method.

Kasumi-1 = assay: Leukemia cell growth inhibition, MTT, 72 h; type: cell-based; conditions: Homo sapiens
Excerpt: as §2, §3

RPMI 8226 = assay: Multiple myeloma cell growth inhibition, MTT, 72 h; type: cell-based; conditions: Homo sapiens
Experimental: Multiple myeloma cell lines: RPMI8226 (multiple myeloma), purchased from Fuxiang Bio-tech Co. Ltd., Shanghai, China.
as §3, with “well-growing” for “well-growing leukemia”, “and” for “and was”

H9 = assay: Leukemia cell growth inhibition, MTT, 72 h; type: cell-based, human; conditions: Homo sapiens, H9; 72 h, MTT
Excerpt: as §2, §3

NB4 = assay: Leukemia cell growth inhibition, MTT, 72 h; type: cell-based, human; conditions: Homo sapiens, NB-4; 72 h, MTT
Excerpt: as §2, §3

Jurkat = assay: Leukemia cell growth inhibition, MTT, 72 h; type: cell-based, human; conditions: Homo sapiens, Jurkat; 72 h, MTT
Excerpt: as §2, §3

Hela = assay: Solid tumor cell growth inhibition, MTT, 72 h; type: cell-based, human; conditions: Homo sapiens, HeLa; 72 h, MTT
Experimental: as §1

Hep-2 = assay: Solid tumor cell growth inhibition, MTT, 72 h; type: cell-based, human; conditions: Homo sapiens, HEp-2; 72 h, MTT
Experimental: as §1

CNE = assay: Solid tumor cell growth inhibition, MTT, 72 h; type: cell-based, human; conditions: Homo sapiens, CNE; 72 h, MTT
Experimental: as §1

MGC-803 = assay: Solid tumor cell growth inhibition, MTT, 72 h; type: cell-based, human; conditions: Homo sapiens, MGC-803; 72 h, MTT
Experimental: as §1

IC50 (PANC-1) | IC90 (PANC-1) | IC50 (SK-OV-3) | IC90 (SK-OV-3) | IC50 (RKO) | IC90 (RKO) | IC50 (MG-63) | IC90 (MG-63) | IC50 (A549) | IC90 (A549) | IC50 (CaEs-17) | IC90 (CaEs-17) | IC50 (Hep G2) | IC90 (Hep G2) | IC50 (PC-3) | IC90 (PC-3) | IC50 (U87-MG) | IC90 (U87-MG) | IC50 (Becap-37) | IC90 (Becap-37) | Compound | other results
3.61 µg/mL (≈ 5.88 µM) | 7.88 µg/mL (≈ 12.8 µM) | 3.07 µg/mL (≈ 5 µM) | 5.41 µg/mL (≈ 8.81 µM) | 0.89 µg/mL (≈ 1.45 µM) | 1.99 µg/mL (≈ 3.24 µM) | 0.98 µg/mL (≈ 1.6 µM) | 1.97 µg/mL (≈ 3.21 µM) | 5.68 µg/mL (≈ 9.25 µM) | 9.98 µg/mL (≈ 16.3 µM) | 1.62 µg/mL (≈ 2.64 µM) | 11.7 µg/mL (≈ 19.1 µM) | 3.17 µg/mL (≈ 5.17 µM) | ≥ 17.2 µg/mL | 3.07 µg/mL (≈ 5 µM) | 5.41 µg/mL (≈ 8.81 µM) | 1.26 µg/mL (≈ 2.05 µM) | 4.56 µg/mL (≈ 7.43 µM) | 2.93 µg/mL (≈ 4.77 µM) | 10.5 µg/mL (≈ 17.1 µM) | C=C1C(=O)[C@]23[C@H](OC(=O)C4CCN(S(=O)(=O)c5ccccc5)CC4)[C@H]1CC[C@H]2[C@@]12CO[C@@]3(O)[C@@H](O)[C@@H]1C(C)(C)CCC2=O [BS-OR-032] | IC50 (K562/ADR): 1.09 µg/mL (≈ 1.78 µM); IC90 (K562/ADR): 2.97 µg/mL (≈ 4.84 µM); IC50 (Kasumi-1): 1.5 µg/mL (≈ 2.44 µM); IC90 (Kasumi-1): 2.92 µg/mL (≈ 4.76 µM); IC50 (RPMI 8226): 1.34 µg/mL (≈ 2.18 µM); IC90 (RPMI 8226): 2.95 µg/mL (≈ 4.81 µM); IC50 (H9): 6.71 µg/mL (≈ 10.9 µM); IC90 (H9): 12.7 µg/mL (≈ 20.7 µM); IC50 (NB4): 4.09 µg/mL (≈ 6.66 µM); IC90 (NB4): 9.77 µg/mL (≈ 15.9 µM); IC50 (Jurkat): 0.93 µg/mL (≈ 1.52 µM); IC90 (Jurkat): 6.15 µg/mL (≈ 10 µM); IC50 (Hela): 2.63 µg/mL (≈ 4.29 µM); IC90 (Hela): 5.67 µg/mL (≈ 9.24 µM); IC50 (Hep-2): > 16 µg/mL; IC90 (Hep-2): > 16 µg/mL; IC50 (CNE): > 16 µg/mL; IC90 (CNE): > 16 µg/mL; IC50 (MGC-803): 12.7 µg/mL (≈ 20.7 µM); IC90 (MGC-803): > 16 µg/mL
2.34 µg/mL (≈ 4.67 µM) | 8.51 µg/mL (≈ 17 µM) | 1.82 µg/mL (≈ 3.63 µM) | 3.82 µg/mL (≈ 7.63 µM) | 0.66 µg/mL (≈ 1.32 µM) | 1.49 µg/mL (≈ 2.97 µM) | 0.48 µg/mL (≈ 0.958 µM) | 2.74 µg/mL (≈ 5.47 µM) | 2.82 µg/mL (≈ 5.63 µM) | 5.64 µg/mL (≈ 11.3 µM) | 1.49 µg/mL (≈ 2.97 µM) | 5.23 µg/mL (≈ 10.4 µM) | 1.69 µg/mL (≈ 3.37 µM) | 7.48 µg/mL (≈ 14.9 µM) | 1.82 µg/mL (≈ 3.63 µM) | 3.82 µg/mL (≈ 7.63 µM) | 0.99 µg/mL (≈ 1.98 µM) | 2.82 µg/mL (≈ 5.63 µM) | 1.12 µg/mL (≈ 2.24 µM) | 3.09 µg/mL (≈ 6.17 µM) | C=C1C(=O)[C@]23[C@H](OC(=O)c4ccccc4Cl)[C@H]1CC[C@H]2[C@@]12CO[C@@]3(O)[C@@H](O)[C@@H]1C(C)(C)CCC2=O [BS-OR-003] | IC50 (K562/ADR): 0.71 µg/mL (≈ 1.42 µM); IC90 (K562/ADR): 2.07 µg/mL (≈ 4.13 µM); IC50 (Kasumi-1): 0.72 µg/mL (≈ 1.44 µM); IC90 (Kasumi-1): 2.25 µg/mL (≈ 4.49 µM); IC50 (RPMI 8226): 0.46 µg/mL (≈ 0.918 µM); IC90 (RPMI 8226): 1.79 µg/mL (≈ 3.57 µM); IC50 (H9): 0.83 µg/mL (≈ 1.66 µM); IC90 (H9): 1.82 µg/mL (≈ 3.63 µM); IC50 (NB4): 0.22 µg/mL (≈ 0.439 µM); IC90 (NB4): 0.81 µg/mL (≈ 1.62 µM); IC50 (Jurkat): 0.81 µg/mL (≈ 1.62 µM); IC90 (Jurkat): 2.72 µg/mL (≈ 5.43 µM); IC50 (Hela): 1.84 µg/mL (≈ 3.67 µM); IC90 (Hela): 5.31 µg/mL (≈ 10.6 µM); IC50 (Hep-2): 1.85 µg/mL (≈ 3.69 µM); IC90 (Hep-2): 7.56 µg/mL (≈ 15.1 µM); IC50 (CNE): 1.93 µg/mL (≈ 3.85 µM); IC90 (CNE): 6.62 µg/mL (≈ 13.2 µM); IC50 (MGC-803): 1.43 µg/mL (≈ 2.85 µM); IC90 (MGC-803): 10.7 µg/mL (≈ 21.4 µM)
1.73 µg/mL (≈ 3.6 µM) | 11.4 µg/mL (≈ 23.6 µM) | 1.59 µg/mL (≈ 3.31 µM) | 3.67 µg/mL (≈ 7.64 µM) | 0.47 µg/mL (≈ 0.978 µM) | 0.94 µg/mL (≈ 1.96 µM) | 0.42 µg/mL (≈ 0.874 µM) | 0.98 µg/mL (≈ 2.04 µM) | 2.75 µg/mL (≈ 5.72 µM) | 6.86 µg/mL (≈ 14.3 µM) | 1.22 µg/mL (≈ 2.54 µM) | 4.75 µg/mL (≈ 9.88 µM) | 1.74 µg/mL (≈ 3.62 µM) | 12.6 µg/mL (≈ 26.2 µM) | 1.59 µg/mL (≈ 3.31 µM) | 3.67 µg/mL (≈ 7.64 µM) | 0.86 µg/mL (≈ 1.79 µM) | 2.4 µg/mL (≈ 4.99 µM) | 1.08 µg/mL (≈ 2.25 µM) | 3.35 µg/mL (≈ 6.97 µM) | C=C1C(=O)[C@]23[C@H](OC(=O)c4cccc(C)c4)[C@H]1CC[C@H]2[C@@]12CO[C@@]3(O)[C@@H](O)[C@@H]1C(C)(C)CCC2=O [BS-OR-008] | IC50 (K562/ADR): 0.52 µg/mL (≈ 1.08 µM); IC90 (K562/ADR): 2.33 µg/mL (≈ 4.85 µM); IC50 (Kasumi-1): 0.73 µg/mL (≈ 1.52 µM); IC90 (Kasumi-1): 1.84 µg/mL (≈ 3.83 µM); IC50 (RPMI 8226): 0.37 µg/mL (≈ 0.77 µM); IC90 (RPMI 8226): 1.72 µg/mL (≈ 3.58 µM); IC50 (H9): 0.76 µg/mL (≈ 1.58 µM); IC90 (H9): 1.79 µg/mL (≈ 3.72 µM); IC50 (NB4): 0.29 µg/mL (≈ 0.603 µM); IC90 (NB4): 0.92 µg/mL (≈ 1.91 µM); IC50 (Jurkat): 0.73 µg/mL (≈ 1.52 µM); IC90 (Jurkat): 2.6 µg/mL (≈ 5.41 µM); IC50 (Hela): 1.45 µg/mL (≈ 3.02 µM); IC90 (Hela): 3.9 µg/mL (≈ 8.12 µM); IC50 (Hep-2): 3.11 µg/mL (≈ 6.47 µM); IC90 (Hep-2): 13.2 µg/mL (≈ 27.4 µM); IC50 (CNE): 2.16 µg/mL (≈ 4.49 µM); IC90 (CNE): 10.5 µg/mL (≈ 21.8 µM); IC50 (MGC-803): 1.39 µg/mL (≈ 2.89 µM); IC90 (MGC-803): 3.89 µg/mL (≈ 8.09 µM)
